Test: Compatibility test of compound of formula (I) with lactose, change of impurities
Assay type: physicochemical
Details: room temperature
Procedure: A compatibility test was carried out with lactose (a reducing sugar) and the compound of formula (I) at room temperature in which, after both were mixed in a certain ratio, the changes of impurity in the compound of formula (I) were tested.

Main peak area (%): 99.247%
Number of impurities: 5
Total impurities (%): 0.753%
SMILES: CS(=O)(=O)n1cc2c(n1)CN([C@@H]1C[C@H](N)[C@@H](c3cc(F)ccc3F)O[C@@H]1C(F)(F)F)C2 [Compound of formula (I)]

Reference: US11974985B2, “Composition of aminopyran derivative” (HAISCO PHARMACEUTICAL GROUP CO., LTD., priority 2018, dated 2024)
